Experimental findings from ChEMBL document CHEMBL4346712, “Research progress in the biological activities of 3,4,5-trimethoxycinnamic acid (TMCA) derivatives” (Eur J Med Chem, 2019) are described below.

Some results are limits rather than exact numbers.

The test system of data set [1] is Platelet. Description: Antiplatelet activity in rabbit platelet rich plasma assessed as inhibition of collagen-induced platelet aggregation at 300 uM preincubated for 3 mins followed by collagen addition measured after 10 mins relative to control. As to conditions: Oryctolagus cuniculus. In kind it is functional.
For data set [2], the system named is Platelet. The data set can be described thus: Antiplatelet activity in rabbit platelet rich plasma assessed as inhibition of arachidonic acid-induced platelet aggregation at 300 uM preincubated for 3 mins followed by arachidonic acid addition measured after 10 mins relative to control. As to conditions: Oryctolagus cuniculus. It is filed as functional.
The test system of data set [3] is Platelet. Description: Antiplatelet activity in rabbit platelet rich plasma assessed as inhibition of PAF-induced platelet aggregation at 300 uM preincubated for 3 mins followed by PAF addition measured after 10 mins relative to control. It is filed as functional. The following applies: Oryctolagus cuniculus.
For data set [4], the system named is Platelet. The data set can be described thus: Antiplatelet activity in rabbit platelet rich plasma assessed as inhibition of arachidonic acid-induced platelet aggregation at 150 uM preincubated for 3 mins followed by arachidonic acid addition measured after 10 mins relative to control. As to conditions: Oryctolagus cuniculus. It is filed as functional.
The test system of data set [5] is Platelet. Description: Antiplatelet activity in rabbit platelet rich plasma assessed as inhibition of PAF-induced platelet aggregation at 150 uM preincubated for 3 mins followed by PAF addition measured after 10 mins relative to control. In kind it is functional. As to conditions: Oryctolagus cuniculus.
Data set [6] is described as follows: Growth inhibition of HUVEC. It is filed as cell-based. As to conditions: human, HUVEC cells.
Data set [7] is described as follows: Growth inhibition of HUVEC at 5 uM relative to control. It is filed as cell-based. As to conditions: human, HUVEC cells; read-out: GI.
The test system of data set [8] is Plasmodium falciparum. Description: Antiplasmodial activity against blood form of chloroquine-resistant/mefloquine-sensitive Plasmodium falciparum W2 by [3H]-hypoxanthine incorporation method. In kind it is functional, organism-based.
The subject of data set [9] is Plasmodium falciparum. The data set can be described thus: Antiplasmodial activity against blood form of chloroquine-resistant/mefloquine-sensitive Plasmodium falciparum W2 by histidine rich protein assay. In kind it is functional, organism-based.
For data set [10], the target named is T1, Bifunctional epoxide hydrolase 2 (Homo sapiens, UniProt P34913).
T1 sequence (P34913 whole entry): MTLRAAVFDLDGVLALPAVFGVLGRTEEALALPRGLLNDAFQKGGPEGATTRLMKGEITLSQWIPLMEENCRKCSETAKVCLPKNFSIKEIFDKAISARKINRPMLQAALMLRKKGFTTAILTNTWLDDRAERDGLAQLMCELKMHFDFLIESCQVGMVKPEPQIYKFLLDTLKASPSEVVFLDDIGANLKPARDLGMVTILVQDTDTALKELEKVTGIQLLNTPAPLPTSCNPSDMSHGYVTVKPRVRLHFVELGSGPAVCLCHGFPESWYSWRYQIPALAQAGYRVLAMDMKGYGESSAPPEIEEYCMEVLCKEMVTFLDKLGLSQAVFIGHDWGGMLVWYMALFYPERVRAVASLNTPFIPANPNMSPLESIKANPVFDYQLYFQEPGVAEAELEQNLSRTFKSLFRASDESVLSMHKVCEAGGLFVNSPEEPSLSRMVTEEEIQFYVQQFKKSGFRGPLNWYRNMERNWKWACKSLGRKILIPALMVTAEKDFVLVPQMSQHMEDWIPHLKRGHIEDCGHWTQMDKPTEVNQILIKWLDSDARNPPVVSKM
The data set can be described thus: Competitive inhibition of soluble epoxide hydrolase (unknown origin).

Data set [11] concerns the target T2, Bifunctional epoxide hydrolase 2 (Homo sapiens) (UniProt P34913).
T2 sequence (whole entry): T1 sequence (P34913 whole entry)
Description: Competitive inhibition of soluble epoxide hydrolase (unknown origin) at 100 uM relative to control.

The target of data set [12] is High mobility group protein B1 (Homo sapiens) (UniProt P09429). The data set can be described thus: Inhibition of HMGB1 (unknown origin) at 10 uM by ELISA relative to control. (An ELISA detects its analyte on a solid surface through an enzyme-linked reagent.)
Sequence of High mobility group protein B1 (Homo sapiens) (P09429 whole entry): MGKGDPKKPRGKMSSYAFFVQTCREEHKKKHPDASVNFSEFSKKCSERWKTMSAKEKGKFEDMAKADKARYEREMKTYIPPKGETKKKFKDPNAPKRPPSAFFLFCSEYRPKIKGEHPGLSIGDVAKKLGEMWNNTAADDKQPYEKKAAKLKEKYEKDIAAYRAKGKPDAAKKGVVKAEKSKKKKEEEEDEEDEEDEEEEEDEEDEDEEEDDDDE
The species named for data set [13] is Mus musculus. Description: Inhibition of HMGB1 in mouse model relative to control. It is filed as functional.
Data set [14] deals with Sodium-dependent serotonin transporter (Homo sapiens, UniProt P31645). Description: Displacement of [3H]Imipramine from human 5-HT transporter expressed in HEK-293 cell membranes after 30 mins.
Sequence of Sodium-dependent serotonin transporter (P31645 whole entry): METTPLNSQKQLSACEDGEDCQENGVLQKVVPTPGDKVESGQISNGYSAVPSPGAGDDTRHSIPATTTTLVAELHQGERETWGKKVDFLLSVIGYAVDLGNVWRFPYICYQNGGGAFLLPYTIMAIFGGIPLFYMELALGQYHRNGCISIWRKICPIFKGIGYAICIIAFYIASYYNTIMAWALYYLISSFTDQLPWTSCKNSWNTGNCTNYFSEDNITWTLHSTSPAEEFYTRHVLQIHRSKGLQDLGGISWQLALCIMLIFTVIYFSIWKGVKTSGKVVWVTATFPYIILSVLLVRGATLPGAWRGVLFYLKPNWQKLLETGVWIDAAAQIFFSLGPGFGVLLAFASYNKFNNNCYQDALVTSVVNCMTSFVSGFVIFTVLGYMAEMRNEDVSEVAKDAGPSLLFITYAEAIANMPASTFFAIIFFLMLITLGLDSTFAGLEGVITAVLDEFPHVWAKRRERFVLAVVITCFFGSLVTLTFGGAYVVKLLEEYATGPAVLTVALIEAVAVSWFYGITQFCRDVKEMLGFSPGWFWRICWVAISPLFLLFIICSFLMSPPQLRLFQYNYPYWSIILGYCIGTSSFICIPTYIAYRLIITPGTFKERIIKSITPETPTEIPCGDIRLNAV
The test system of data set [15] is Mus musculus. Description: Antinarcotic activity in morphine-dependent C57BL/6 mouse assessed as inhibition of naloxone-induced jumping behavior in mouse at 5 mg/kg , ip after 30 mins relative to control. It is filed as functional. The following applies: C57BL/6, ip, 0.5 h.
The target of data set [16] is 5-hydroxytryptamine receptor 1A (Homo sapiens, UniProt P08908). The data set can be described thus: Displacement of [3H]8-OH-DPAT from 5-HT1A receptor (unknown origin) expressed in CHO-K1 cell membranes after 60 mins by microbeta counting method. (In general: Loss of bound radioactivity is the signal in a displacement assay; it reports binding, not function.)
Sequence of 5-hydroxytryptamine receptor 1A (P08908 whole entry): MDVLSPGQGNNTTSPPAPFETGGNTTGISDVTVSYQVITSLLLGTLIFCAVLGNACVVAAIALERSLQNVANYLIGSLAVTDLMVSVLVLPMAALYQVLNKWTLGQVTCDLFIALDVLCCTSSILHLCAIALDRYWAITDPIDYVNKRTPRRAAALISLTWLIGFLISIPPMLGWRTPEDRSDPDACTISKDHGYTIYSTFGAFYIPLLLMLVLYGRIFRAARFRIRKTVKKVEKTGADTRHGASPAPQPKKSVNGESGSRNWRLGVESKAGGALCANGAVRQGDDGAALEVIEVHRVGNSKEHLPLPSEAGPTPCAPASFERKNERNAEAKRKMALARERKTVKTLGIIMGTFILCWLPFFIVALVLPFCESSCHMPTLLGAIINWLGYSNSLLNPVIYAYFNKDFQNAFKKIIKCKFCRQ

Consider `CC(=O)Oc1ccccc1C(=O)O` [ASPIRIN], for which the inhibition at 300 µM in the data set with Platelet [1] stood at 5.8%; in the data set on Platelet [2] it was 100%; with Platelet [3], 0.3%. Besides, the inhibition at 150 µM worked out at 75% in the data set with Platelet [4] and 0.3% in the data set with Platelet [5].

The term GI50 denotes the concentration that inhibits growth by half. Take `COc1cc(/C=C/C(=O)Nc2ccc(NC(=O)[C@@H](O)[C@H](N)CC3CCCCC3)cc2)cc(OC)c1OC`: the GI50 in data set [6] worked out at 0.67 µM. Also, the inhibition at 5 µM in [7] is > 98%.

In data set [6], `COc1cc(/C=C/C(=O)Nc2ccc(NC(=O)[C@@H](O)[C@H](N)CCc3ccccc3)cc2)cc(OC)c1OC` returned a GI50 of 0.85 µM. Also, in [7], the inhibition at 5 µM was > 98%.

As a reminder, the IC50 is the point on the concentration scale where inhibition reaches its midpoint. Lower therefore signals inhibition by little substance. Regarding `COc1cc(/C=C/C(=O)OCC(=O)c2ccc(Cl)cc2)cc(OC)c1OC`, the IC50 with Plasmodium falciparum [8] and in the data set on Plasmodium falciparum [9] was 128 µM each time.

In [10], `COc1cc(/C=C/C(=O)O[C@H]2[C@H](O)[C@@H](CO)O[C@]2(CO)O[C@H]2O[C@H](CO)[C@@H](OC(=O)c3ccccc3)[C@H](O)[C@H]2O)cc(OC)c1OC` returned a 50% inhibitory concentration (IC50) of 18 µM. Further, in [11], the inhibition was > 100%.

Regarding `COc1cc(/C=C/C(=O)Oc2ccc3[nH]c4ccccc4c3c2)cc(OC)c1OC`, in data set [12], the inhibition was 70.2%. In addition, the “inhibition (INH)” value in the data set listed under Mus musculus [13] is listed as 58.9%.

A word on the inhibition in vivo: it is the drop in the measured response relative to a control, in per cent. As to `CCCCCCCCNC(=O)/C=C/c1cc(OC)c(OC)c(OC)c1`, the IC50 in [14] was > 10 µM. Moreover, the inhibition in vivo at 5 mg/kg in the data set with Mus musculus [15] came out at 88%.

Consider `COc1cc(/C=C/C(=O)O[C@H]2[C@H](O)[C@@H](CO)O[C@@]2(CO)O[C@H]2O[C@H](COC(=O)c3ccc(O)cc3)[C@@H](O)[C@H](O)[C@H]2O)cc(OC)c1OC`, for which, in data set [10], the half-inhibitory concentration (IC50) stood at 9.1 µM. The inhibition in [11] was > 100%.

For the molecule `COc1cc(/C=C/C(=O)Nc2ccc(NC(=O)[C@@H](O)[C@H](N)Cc3ccccc3)cc2)cc(OC)c1OC`, the inhibition at 5 µM in data set [7] came out at 93%.

For `COc1cc(/C=C/C(=O)OC[C@H]2O[C@H](O[C@@]3(CO)O[C@H](CO)[C@@H](O)[C@@H]3OC(=O)/C=C/c3cc(OC)c(OC)c(OC)c3)[C@H](O)[C@@H](O)[C@@H]2O)cc(OC)c1O`, the IC50 in data set [10] is 27.2 µM. The molecule further yielded an inhibition in data set [11] of 97.4%.

Regarding `COc1cc(/C=C/C(=O)Oc2ccccc2)cc(OC)c1OC`, the IC50 in data set [16] was determined as 9.4 µM.
